In ChEMBL document CHEMBL4033645, “Design, synthesis, and docking studies of quinazoline analogues bearing aryl semicarbazone scaffolds as potent EGFR inhibitors” (Bioorg Med Chem, 2017):

Assays:
A549 [1] = assay: Cytotoxicity against human A549 cells assessed as decrease in cell viability after 72 hrs by MTT assay; format: functional, cell-based; conditions: A549, 72 h
HepG2 [2] = assay: Cytotoxicity against human HepG2 cells assessed as decrease in cell viability after 72 hrs by MTT assay; format: functional, cell-based
MCF7 [3] = assay: Cytotoxicity against human MCF7 cells assessed as decrease in cell viability after 72 hrs by MTT assay; format: functional, cell-based
PC-3 = assay: Cytotoxicity against human PC3 cells assessed as decrease in cell viability after 72 hrs by MTT assay; format: functional, cell-based
A549 [4] = assay: Induction of apoptosis in human A549 cells after 48 hrs by Annexin V-FITC/propidium iodide-staining based by flow cytometric analysis; format: functional, cell-based
[5] = target: Epidermal growth factor receptor (Homo sapiens, UniProt P00533); assay: Inhibition of EGFR (unknown origin) using FAM-labeled peptide as substrate measured after 10 mins by mobility shift assay
A549 [6] = assay: Induction of apoptosis in human A549 cells assessed as viable cells at 0.5 uM after 48 hrs by Annexin V-FITC/propidium iodide-staining based by flow cytometric analysis (reference value: 93.27%); format: functional; conditions: A549, 48 h, read-out: Activity
A549 [7] = assay: Induction of apoptosis in human A549 cells assessed as early apoptotic cells at 0.5 uM after 48 hrs by Annexin V-FITC/propidium iodide-staining based by flow cytometric analysis (reference value: 3.40%); format: functional
A549 [8] = assay: Induction of apoptosis in human A549 cells assessed as late apoptotic cells at 0.5 uM after 48 hrs by Annexin V-FITC/propidium iodide-staining based by flow cytometric analysis (reference value: 2.69%); format: functional
A549 [9] = assay: Induction of apoptosis in human A549 cells assessed as necrotic cells at 0.5 uM after 48 hrs by Annexin V-FITC/propidium iodide-staining based by flow cytometric analysis (reference value: 0.64%); format: functional
A549 [10] = assay: Induction of apoptosis in human A549 cells assessed as viable cells at 1 uM after 48 hrs by Annexin V-FITC/propidium iodide-staining based by flow cytometric analysis (reference value: 93.27%); format: functional; conditions: A549, 48 h, read-out: Activity
A549 [11] = assay: Induction of apoptosis in human A549 cells assessed as early apoptotic cells at 1 uM after 48 hrs by Annexin V-FITC/propidium iodide-staining based by flow cytometric analysis (reference value: 3.40%); format: functional
A549 [12] = assay: Induction of apoptosis in human A549 cells assessed as late apoptotic cells at 1 uM after 48 hrs by Annexin V-FITC/propidium iodide-staining based by flow cytometric analysis (reference value: 2.69%); format: functional
A549 [13] = assay: Induction of apoptosis in human A549 cells assessed as necrotic cells at 1 uM after 48 hrs by Annexin V-FITC/propidium iodide-staining based by flow cytometric analysis (reference value: 0.64%); format: functional
HepG2 [14] = assay: Potency index, ratio of afatinib IC50 to compound IC50 for human HepG2 cells; format: functional
MCF7 [15] = assay: Potency index, ratio of afatinib IC50 to compound IC50 for human MCF7 cells; format: functional
[16] = Homo sapiens, HepG2, 72 h, read-out: IC50
[17] = Homo sapiens, MCF7, 72 h, read-out: IC50
[18] = Homo sapiens, PC-3, 72 h, read-out: IC50

Chain of Epidermal growth factor receptor (P00533 whole entry): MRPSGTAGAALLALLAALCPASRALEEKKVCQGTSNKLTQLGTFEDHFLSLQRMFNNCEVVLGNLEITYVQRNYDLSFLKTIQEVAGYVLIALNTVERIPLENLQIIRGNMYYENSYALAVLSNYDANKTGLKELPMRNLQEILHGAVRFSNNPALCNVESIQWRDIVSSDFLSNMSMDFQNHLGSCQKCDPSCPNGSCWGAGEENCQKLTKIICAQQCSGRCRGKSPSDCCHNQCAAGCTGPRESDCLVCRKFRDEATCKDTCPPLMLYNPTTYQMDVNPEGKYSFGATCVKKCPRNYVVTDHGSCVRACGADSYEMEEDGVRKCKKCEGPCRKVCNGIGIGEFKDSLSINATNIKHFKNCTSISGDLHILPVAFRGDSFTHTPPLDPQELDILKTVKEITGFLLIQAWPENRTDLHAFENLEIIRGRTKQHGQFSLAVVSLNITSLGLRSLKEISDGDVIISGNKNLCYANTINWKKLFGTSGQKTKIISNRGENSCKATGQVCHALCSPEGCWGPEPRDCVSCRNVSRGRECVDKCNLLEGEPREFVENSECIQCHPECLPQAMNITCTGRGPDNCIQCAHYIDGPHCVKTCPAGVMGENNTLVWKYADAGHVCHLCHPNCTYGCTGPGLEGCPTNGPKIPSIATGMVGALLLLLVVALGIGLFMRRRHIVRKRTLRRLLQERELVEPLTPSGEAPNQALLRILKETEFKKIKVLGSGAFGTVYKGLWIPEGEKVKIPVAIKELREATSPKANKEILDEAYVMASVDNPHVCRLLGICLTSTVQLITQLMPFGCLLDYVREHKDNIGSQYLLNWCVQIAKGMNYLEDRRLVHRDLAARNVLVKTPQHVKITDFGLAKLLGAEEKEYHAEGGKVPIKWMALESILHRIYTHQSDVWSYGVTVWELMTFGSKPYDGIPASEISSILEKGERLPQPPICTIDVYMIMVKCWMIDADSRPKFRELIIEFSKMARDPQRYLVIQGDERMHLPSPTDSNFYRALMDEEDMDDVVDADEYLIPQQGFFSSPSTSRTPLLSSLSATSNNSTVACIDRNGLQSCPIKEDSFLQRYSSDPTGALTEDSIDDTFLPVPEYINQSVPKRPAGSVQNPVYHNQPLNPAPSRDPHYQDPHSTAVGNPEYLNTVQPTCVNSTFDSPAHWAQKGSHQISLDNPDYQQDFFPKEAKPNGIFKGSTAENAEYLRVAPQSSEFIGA

Row | Structure (SMILES) | IC50 (A549 [1]) | IC50 (HepG2 [2]; [16]) | IC50 (MCF7 [3]; [17]) | IC50 (PC-3; [18]) | further results
1 | COc1cc2ncnc(Nc3ccc(F)c(Cl)c3)c2cc1NC(=O)N/N=C/c1cc(Br)c(O)c(Br)c1 | 34.6 µM | 36.8 µM | 30.2 µM | 41.5 µM | –
2 | COc1ccc(/C=N/NC(=O)Nc2cc3c(Nc4ccc(F)c(Cl)c4)ncnc3cc2O[C@H]2CCOC2)cc1 | 33.1 µM | 28.8 µM | 27.3 µM | 34.1 µM | –
3 | COc1cc2ncnc(Nc3ccc(F)c(Cl)c3)c2cc1NC(=O)N/N=C/c1ccc([N+](=O)[O-])cc1 | 35.1 µM | 34.1 µM | 36.8 µM | 32.4 µM | –
4 | O=C(N/N=C/c1ccc([N+](=O)[O-])cc1)Nc1cc2c(Nc3ccc(F)c(Cl)c3)ncnc2cc1O[C@H]1CCOC1 | 31.2 µM | 35.3 µM | – | 33.5 µM | IC50 (MCF7 [3]; mcf7): Not Active
5 | N#Cc1ccc(/C=N/NC(=O)Nc2cc3c(Nc4ccc(F)c(Cl)c4)ncnc3cc2O[C@H]2CCOC2)cc1 | 29.1 µM | 26.4 µM | – | 28.1 µM | –
6 | O=C(N/N=C/c1ccc(O)cc1)Nc1cc2c(Nc3ccc(F)c(Cl)c3)ncnc2cc1O[C@H]1CCOC1 | 1.32 µM | 0.07 µM | 0.91 µM | 4.89 µM | Activity (A549 [4]): Dose-dependent effect; IC50 [5]: 0.056 µM; viability at 0.5 µM (A549 [6]): 83.9%; Activity (A549 [7]): 6.81%; Activity (A549 [8]): 6.94%; Activity (A549 [9]): 2.37%; viability at 1 µM (A549 [10]): 77.9%; Activity (A549 [11]): 8.81%; Activity (A549 [12]): 8.94%; Activity (A549 [13]): 4.37%; Ratio IC50 (HepG2 [14]): 19; Ratio IC50 (MCF7 [15]): 2.9
7 | CC(C)(C)c1cc(/C=N/NC(=O)Nc2cc3c(Nc4ccc(F)c(Cl)c4)ncnc3cc2O[C@H]2CCOC2)cc(C(C)(C)C)c1O | 18.9 µM | 12.5 µM | 14.5 µM | 13.1 µM | –
8 | CCN(CC)c1ccc(/C=N/NC(=O)Nc2cc3c(Nc4ccc(F)c(Cl)c4)ncnc3cc2OC)c(O)c1 | 27.3 µM | 29.3 µM | 27.3 µM | 34.3 µM | –
9 | COc1cc2ncnc(Nc3ccc(F)c(Cl)c3)c2cc1NC(=O)N/N=C/c1ccc(O)cc1O | 31.4 µM | 32.1 µM | 36.2 µM | 29.5 µM | –
10 | COc1cc2ncnc(Nc3ccc(F)c(Cl)c3)c2cc1NC(=O)N/N=C/c1ccc(O)cc1 | 7.61 µM | 26.3 µM | 28.6 µM | 16.6 µM | –
11 | COc1cc2ncnc(Nc3ccc(F)c(Cl)c3)c2cc1NC(=O)N/N=C/c1ccc(O)c(Br)c1 | 28.6 µM | 23.8 µM | – | 15.3 µM | IC50 (MCF7 [3]; mcf7): Not Active
12 | COc1ccc(/C=N/NC(=O)Nc2cc3c(Nc4ccc(F)c(Cl)c4)ncnc3cc2O[C@H]2CCOC2)c(OC)c1OC | 25.2 µM | 29.3 µM | 33.8 µM | 25.6 µM | –
13 | COc1cc2ncnc(Nc3ccc(F)c(Cl)c3)c2cc1NC(=O)N/N=C/c1ccc(OC)c(OC)c1OC | 32.8 µM | 31.2 µM | – | 29.3 µM | IC50 (MCF7 [3]; mcf7): Not Active
14 | COc1cc2ncnc(Nc3ccc(F)c(Cl)c3)c2cc1NC(=O)N/N=C/c1cc(OC)c(OC)c(OC)c1 | 32.1 µM | 30.1 µM | 30.7 µM | 36.5 µM | –
15 | COc1cc2ncnc(Nc3ccc(F)c(Cl)c3)c2cc1NC(=O)N/N=C/c1ccc(F)cc1 | 26.6 µM | 31.1 µM | 35.1 µM | 36.5 µM | –
16 | O=C(N/N=C/c1ccc(F)cc1Cl)Nc1cc2c(Nc3ccc(F)c(Cl)c3)ncnc2cc1O[C@H]1CCOC1 | 27.2 µM | 26.1 µM | 32.2 µM | 28.4 µM | –

Row | Structure (SMILES) | IC50 (A549 [1]) | IC50 (HepG2 [2]; [16]) | IC50 (MCF7 [3]; [17]) | IC50 (PC-3; [18]) | further results
17 | COc1cc2ncnc(Nc3ccc(F)c(Cl)c3)c2cc1NC(=O)N/N=C/c1ccc(C#N)cc1 | 32.2 µM | 34.1 µM | – | 36.5 µM | –
18 | COc1cc2ncnc(Nc3ccc(F)c(Cl)c3)c2cc1NC(=O)N/N=C/c1cc(C(C)(C)C)c(O)c(C(C)(C)C)c1 | 37.1 µM | 26.8 µM | 28.3 µM | 28.7 µM | –
19 | O=C(N/N=C/c1cccc(Cl)c1Cl)Nc1cc2c(Nc3ccc(F)c(Cl)c3)ncnc2cc1O[C@H]1CCOC1 | 25 µM | 16.9 µM | – | 27.4 µM | IC50 (MCF7 [3]; mcf7): Not Active
20 | O=C(N/N=C/c1ccc(O)cc1O)Nc1cc2c(Nc3ccc(F)c(Cl)c3)ncnc2cc1O[C@H]1CCOC1 | 9.36 µM | 4.53 µM | 5.35 µM | 7.54 µM | –
21 | O=C(N/N=C/c1cc(Br)c(O)c(Br)c1)Nc1cc2c(Nc3ccc(F)c(Cl)c3)ncnc2cc1O[C@H]1CCOC1 | 8.91 µM | 2.74 µM | 5.91 µM | 6.16 µM | –
22 | COc1cc2ncnc(Nc3ccc(F)c(Cl)c3)c2cc1NC(=O)N/N=C/c1cccc(Cl)c1Cl | 35.3 µM | 26.1 µM | 28.7 µM | 24.4 µM | –
23 | COc1cc2ncnc(Nc3ccc(F)c(Cl)c3)c2cc1NC(=O)N/N=C/c1ccc(F)cc1Cl | 28.2 µM | 29.2 µM | – | 25.7 µM | IC50 (MCF7 [3]; mcf7): Not Active
24 | COc1cc(/C=N/NC(=O)Nc2cc3c(Nc4ccc(F)c(Cl)c4)ncnc3cc2O[C@H]2CCOC2)cc(OC)c1OC | 26.4 µM | 31.2 µM | 26.5 µM | 29.6 µM | –
25 | O=C(N/N=C/c1ccc(F)cc1)Nc1cc2c(Nc3ccc(F)c(Cl)c3)ncnc2cc1O[C@H]1CCOC1 | 35.1 µM | – | 28.2 µM | – | IC50 (HepG2 [2]; hepg2): Not Active; IC50 (PC-3; pc-3): Not Active
26 | CCN(CC)c1ccc(/C=N/NC(=O)Nc2cc3c(Nc4ccc(F)c(Cl)c4)ncnc3cc2O[C@H]2CCOC2)c(O)c1 | 15.7 µM | 15.7 µM | 15.6 µM | 4.59 µM | –
27 | COc1cc2ncnc(Nc3ccc(F)c(Cl)c3)c2cc1NC(=O)N/N=C/c1cccc(Br)c1 | 28.1 µM | – | 27.1 µM | – | IC50 (HepG2 [2]; hepg2): Not Active; IC50 (PC-3; pc-3): Not Active
28 | O=C(N/N=C/c1cccc(Br)c1)Nc1cc2c(Nc3ccc(F)c(Cl)c3)ncnc2cc1O[C@H]1CCOC1 | 10.7 µM | 32.3 µM | 12.4 µM | 15.5 µM | –
29 | COc1ccc(/C=N/NC(=O)Nc2cc3c(Nc4ccc(F)c(Cl)c4)ncnc3cc2OC)cc1 | 28.1 µM | 21.3 µM | 8.14 µM | 16.5 µM | –
30 | O=C(N/N=C/c1ccc(O)c(Br)c1)Nc1cc2c(Nc3ccc(F)c(Cl)c3)ncnc2cc1O[C@H]1CCOC1 | 4.31 µM | 0.66 µM | 2.69 µM | 5.23 µM | –
31 | CN(C)C/C=C/C(=O)Nc1cc2c(Nc3ccc(F)c(Cl)c3)ncnc2cc1O[C@H]1CCOC1 [AFATINIB] | 1.4 µM | – | – | 3.96 µM | –
